A word on the EC50: it is the concentration needed to bring the measured effect to its halfway point. By Emax is commonly meant the maximal effect, on the per cent scale that the assay sets. The Ki is a dissociation constant, usually derived from enzyme kinetics or from competition with a known ligand. Lower therefore signals a stronger hold on the target.

The target of one test is T1, 5HT2B receptors (Homo sapiens, UniProt P41595).
T1 construct: expressed in transfected cells; host or cells: CHO-K1 cells
Put plainly: Human 5-HT2B functional high throughput screening assay in CHO-K1 cells (calcium flux). Type of test: cell-based. The procedure, abridged: (§1)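 Frozen CHO-K1 cells overexpressing the receptor were plated, serum-starved overnight, then loaded with Ca4 dye plus 2.5 mM probenecid for 60 min at room temperature. FLIPR fluorescence (ex 480/em 530 nm, 25 °C) after compound addition was normalized to serotonin; EC50 and Emax came from 4-parameter logistic fits.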

Test [1] deals with T2, 5HT2C receptors (Homo sapiens, UniProt P28335).
T2 sequence (P28335 33-458): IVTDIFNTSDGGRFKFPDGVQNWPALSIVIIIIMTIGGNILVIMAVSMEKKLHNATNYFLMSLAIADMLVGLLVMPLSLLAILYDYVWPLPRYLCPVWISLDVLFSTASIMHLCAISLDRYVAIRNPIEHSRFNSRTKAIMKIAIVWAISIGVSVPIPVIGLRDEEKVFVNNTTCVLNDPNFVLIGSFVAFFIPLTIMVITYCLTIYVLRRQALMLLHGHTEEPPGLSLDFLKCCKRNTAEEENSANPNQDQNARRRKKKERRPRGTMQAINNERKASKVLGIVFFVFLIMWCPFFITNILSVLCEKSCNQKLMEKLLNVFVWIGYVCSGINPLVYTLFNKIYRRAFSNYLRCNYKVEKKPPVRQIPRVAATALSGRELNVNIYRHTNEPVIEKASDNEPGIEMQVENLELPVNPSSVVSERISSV
Nature of the test: Human 5-HT2C functional assay in 1321N1 cells (intracellular calcium, FLIPR). It is filed as cell-based. Also noted: expressed in transfected cells; host or cells: 1321N1 cells. The settings on record: 5-HT2c agonist activity, maximum calcium response. The procedure:
(ii) Human 5-HT2C Functional Assay in 1321N1 Cells
Functional activity was determined by testing the effect of the compounds on intracellular calcium levels in 1321N1 cells stably transfected with the human 5-HT2C receptor. Cells were seeded into 96-well plates at 50,000 cells/well and grown overnight in tissue culture medium (DMEM with Glutamax I (Invitrogen), containing 10% dFCS, 50 μg/mL Gentamicin, 400 μg/mL Geneticin) at 37° C. and 7% CO2. Growth medium was replaced by medium without dFCS for overnight incubation. Cells were loaded with a fluorescent calcium-sensitive dye in the presence of 1% probenicid according to the manufacturer's protocol (Fluo4 AM, Molecular Devices). Serial compound dilutions (final concentrations 10^−10 to 10^−5 M) were added to the cells either alone or in the presence of serotonin (10^−9 M) and the maximum calcium response was determined using a FLIPR instrument (Molecular Devices). Concentration-response curves were fitted using a four-parameter logistic equation (GraphPad Prism). The concentration at which the compound exerts half its maximal effect is named the ‘effective concentration 50’ or ‘EC50’ and is listed in Table 2.

The target of test [2] is T2, 5HT2C receptors. Put plainly: Human 5-HT2C functional high throughput screening assay in CHO-K1 cells (calcium flux). Also noted: expressed in transfected cells; host or cells: CHO-K1 cells. It is filed as cell-based. The procedure, abridged:
as §1

Test [3] concerns the target T3, human serotonin 5-HT2c receptor (Homo sapiens, UniProt P28335).
T3 construct: expressed in transfected cells; host or cells: CHO cells (membrane homogenates)
T3 sequence (P28335 33-458): T2 sequence (P28335 33-458)
Nature of the test: Human 5-HT2C receptor radioligand binding assay (agonist site, [125I]DOI). The settings on record: 5-HT2c agonist site; transfected CHO cell membranes; 0.2 nM [125I](±)DOI. The procedure: (i) Human 5-HT2C Receptor Radioligand Binding Assay
Affinity of compounds for the agonist site of the […], receptor in transfected CHO cells was determined in a radioligand binding assay essentially as described by Bryant, H. U., et al., Life Sciences (1996) 59(15), 1259-1268.

T1 sequence (P41595 whole entry): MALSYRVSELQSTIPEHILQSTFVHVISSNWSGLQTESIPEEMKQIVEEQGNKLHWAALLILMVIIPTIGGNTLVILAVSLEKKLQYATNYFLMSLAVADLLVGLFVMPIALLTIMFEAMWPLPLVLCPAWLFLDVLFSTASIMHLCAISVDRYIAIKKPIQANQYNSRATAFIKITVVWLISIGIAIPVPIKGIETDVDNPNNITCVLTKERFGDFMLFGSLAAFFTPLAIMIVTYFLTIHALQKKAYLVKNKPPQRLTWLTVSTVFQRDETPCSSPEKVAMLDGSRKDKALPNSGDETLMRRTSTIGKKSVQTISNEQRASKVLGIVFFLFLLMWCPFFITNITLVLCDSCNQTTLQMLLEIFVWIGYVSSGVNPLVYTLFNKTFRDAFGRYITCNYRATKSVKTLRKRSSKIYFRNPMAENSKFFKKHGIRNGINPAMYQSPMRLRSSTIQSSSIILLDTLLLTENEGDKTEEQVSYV

As to `O=C1NC[C@@H]2CN(Cc3ccccc3)C[C@H]2c2ccccc21` (racemic) [Example 1, Trans-2-benzyl-1,2,3,3a,4,5-hexahydrobenzo[c]pyrrolo[3,4-e]azepin-6(10bH)-one], the EC50 on 5HT2B receptors (5-HT2B agonist activity, CHO-K1 cells, calcium flux, read-out: EC50) was above 10 µM; at 5HT2C receptors [1], 11.2 nM; at 5HT2C receptors [2] (5-HT2C agonist activity, CHO-K1 cells, calcium flux, read-out: EC50) it was 20 nM. In addition, the Emax result at 5HT2B receptors (5-HT2B, maximum functional response as percentage relative to the effect of serotonin) is “inactive”; at 5HT2C receptors [2] (CHO-K1, 5-HT2C, maximum functional response as percentage relative to the effect of serotonin, read-out: Emax), above 120%.
With `O=C1NC[C@@H]2CNC[C@H]2c2ccccc21` (relative stereo) [Example 2, Trans-1,2,3,3a,4,5-hexahydrobenzo[c]pyrrolo[3,4-e]azepin-6(10bH)-one], in test [3], affinity was put at a Ki of 22 nM.
Take `O=C1NC[C@@H]2CNC[C@@H]2c2ccccc21` (relative stereo) [Example 4, Cis-1,2,3,3a,4,5-hexahydrobenzo[c]pyrrolo[3,4-e]azepin-6(10bH)-one]: at 5HT2C receptors [1], the concentration for a half-maximal effect (EC50) worked out at 202 nM.
With `Cc1cc(C)cc(CN2C[C@H]3CNC(=O)c4ccccc4[C@@H]3C2)c1` (relative stereo) [Example 22, Trans-2-(3,5-dimethylbenzyl)-1,2,3,3a,4,5-hexahydrobenzo[c]pyrrolo[3,4-e]azepin-6(10bH)-one], the EC50 on 5HT2C receptors [1] came out at 5.22 nM.
Same read-out and setting: in the case of `Cc1ccc(C)c(CN2C[C@H]3CNC(=O)c4ccccc4[C@@H]3C2)c1` (relative stereo) [Example 23, Trans-2-(2,5-dimethylbenzyl)-1,2,3,3a,4,5-hexahydrobenzo[c]pyrrolo[3,4-e]azepin-6(10bH)-one] it was 8.85 nM.
Consider `Cc1ccc(CN2C[C@H]3CNC(=O)c4ccccc4[C@@H]3C2)c(C)c1` (relative stereo) [Example 24, Trans-2-(2,4-dimethylbenzyl)-1,2,3,3a,4,5-hexahydrobenzo[c]pyrrolo[3,4-e]azepin-6(10bH)-one], for which the half-maximal effective concentration (EC50) at 5HT2C receptors [1] was determined as 45.6 nM.
On the same count and under the same terms, in the case of `Cc1ccc(CN2C[C@H]3CNC(=O)c4ccccc4[C@@H]3C2)cc1C` (relative stereo) [Example 25, Trans-2-(3,4-dimethylbenzyl)-1,2,3,3a,4,5-hexahydrobenzo[c]pyrrolo[3,4-e]azepin-6(10bH)-one] it was 40.2 nM; in that of `Cc1cccc(CN2C[C@H]3CNC(=O)c4ccccc4[C@@H]3C2)c1` (relative stereo) [Example 26, Trans-2-(3-methylbenzyl)-1,2,3,3a,4,5-hexahydrobenzo[c]pyrrolo[3,4-e]azepin-6(10bH)-one], 10.3 nM.
In test [3], `Cc1cccc(CN2C[C@H]3CNC(=O)c4ccccc4[C@@H]3C2)c1C` (relative stereo) [Example 27, Trans-2-(2,3-dimethylbenzyl)-1,2,3,3a,4,5-hexahydrobenzo[c]pyrrolo[3,4-e]azepin-6(10bH)-one] gave a Ki of 210 nM. The EC50 at 5HT2C receptors [1] was determined as 266 nM.
The corresponding values for `COc1ccccc1CN1C[C@H]2CNC(=O)c3ccccc3[C@@H]2C1` (relative stereo) [Example 29, Trans-2-(2-methoxybenzyl)-1,2,3,3a,4,5-hexahydrobenzo[c]pyrrolo[3,4-e]azepin-6(10bH)-one] are 70 nM and 27 nM.
The corresponding values for `O=C1NC[C@@H]2CN(Cc3cc(Cl)cc(Cl)c3)C[C@H]2c2ccccc21` (relative stereo) [Example 30, Trans-2-(3,5-dichlorobenzyl)-1,2,3,3a,4,5-hexahydrobenzo[c]pyrrolo[3,4-e]azepin-6(10bH)-one] are 3.4 nM and 2.11 nM.
Turning to `O=C1NC[C@@H]2CN(Cc3cc(Cl)ccc3Cl)C[C@H]2c2ccccc21` (relative stereo) [Example 31, Trans-2-(2,5-dichlorobenzyl)-1,2,3,3a,4,5-hexahydrobenzo[c]pyrrolo[3,4-e]azepin-6(10bH)-one], the EC50 on 5HT2C receptors [1] was 4.05 nM.
On the same count and under the same terms, with `O=C1NC[C@@H]2CN(Cc3cccc(Cl)c3)C[C@H]2c2ccccc21` (relative stereo) [Example 32, Trans-2-(3-chlorobenzyl)-1,2,3,3a,4,5-hexahydrobenzo[c]pyrrolo[3,4-e]azepin-6(10bH)-one] the figure was 19.3 nM; with `O=C1NC[C@@H]2CN(Cc3ccccc3Cl)C[C@H]2c2ccccc21` (relative stereo) [Example 33, Trans-2-(2-chlorobenzyl)-1,2,3,3a,4,5-hexahydrobenzo[c]pyrrolo[3,4-e]azepin-6(10bH)-one], 32.9 nM; with `O=C1NC[C@@H]2CN(Cc3cccc(F)c3)C[C@H]2c2ccccc21` (relative stereo) [Example 34, Trans-2-(3-fluorobenzyl)-1,2,3,3a,4,5-hexahydrobenzo[c]pyrrolo[3,4-e]azepin-6(10bH)-one], 12 nM.
With `O=C1NC[C@@H]2CN(Cc3ccccc3F)C[C@H]2c2ccccc21` (relative stereo) [Example 35, Trans-2-(2-fluorobenzyl)-1,2,3,3a,4,5-hexahydrobenzo[c]pyrrolo[3,4-e]azepin-6(10bH)-one], the EC50 at 5HT2C receptors [1] worked out at 12.3 nM.
On the same count and under the same terms, in the case of `N#Cc1cccc(CN2C[C@H]3CNC(=O)c4ccccc4[C@@H]3C2)c1` (relative stereo) [Example 36, 3-((Trans-6-oxo-1,3a,4,5,6,10b-hexahydrobenzo[c]pyrrolo[3,4-e]azepin-2(3H)-yl)methyl)benzonitrile] it was 77.2 nM.
Take `COc1cc(CN2C[C@H]3CNC(=O)c4ccccc4[C@@H]3C2)cc(OC)c1` (relative stereo) [Example 38, Trans-2-(3,5-dimethoxybenzyl)-1,2,3,3a,4,5-hexahydrobenzo[c]pyrrolo[3,4-e]azepin-6(10bH)-one]: the Ki in test [3] was 8.6 nM. In addition, at 5HT2C receptors [1], the EC50 turned out to be 6.24 nM.
`O=C1NC[C@@H]2CN(Cc3cc(Cl)cc(Cl)c3)C[C@@H]2c2ccccc21` (relative stereo) [Example 40, Cis-2-(3,5-dichlorobenzyl)-1,2,3,3a,4,5-hexahydrobenzo[c]pyrrolo[3,4-e]azepin-6(10bH)-one]: on 5HT2C receptors [1], the EC50 is 11.3 nM.
With `O=C1NC[C@@H]2CN(Cc3cccc(Cl)c3)C[C@@H]2c2ccccc21` (relative stereo) [Example 41, Cis-2-(3-chlorobenzyl)-1,2,3,3a,4,5-hexahydrobenzo[c]pyrrolo[3,4-e]azepin-6(10bH)-one], the EC50 on 5HT2C receptors [1] was 4.94 nM.
On to `O=C1NC[C@@H]2CN(Cc3cccc(F)c3)C[C@@H]2c2ccccc21` (relative stereo) [Example 42, Cis-2-(3-fluorobenzyl)-1,2,3,3a,4,5-hexahydrobenzo[c]pyrrolo[3,4-e]azepin-6(10bH)-one], for which, on 5HT2C receptors [1], the EC50 stood at 18.1 nM.
Still for that read-out and setting: with `O=C1NC[C@@H]2CN(Cc3cccc4ccccc34)C[C@@H]2c2ccccc21` (relative stereo) [Example 43, Cis-2-(naphthalen-1-ylmethyl)-1,2,3,3a,4,5-hexahydrobenzo[e]pyrrolo[3,4-e]azepin-6(10bH)-one] the figure was 81.9 nM.
Consider `O=C1NC[C@@H]2CN(Cc3ccccc3)C[C@H]2c2ccc(Cl)cc21` (relative stereo) [Example 45, Trans-2-benzyl-8-chloro-1,2,3,3a,4,5-hexahydrobenzo[c]pyrrolo[3,4-e]azepin-6(10bH)-one], for which the affinity in test [3] corresponds to a Ki of 6.9 nM. In addition, on 5HT2C receptors [1], the EC50 worked out at 5.95 nM.
Turning to `O=C1NC[C@@H]2CNC[C@H]2c2ccc(Cl)cc21` (relative stereo) [Example 46, Trans-8-chloro-1,2,3,3a,4,5-hexahydrobenzo[e]pyrrolo[3,4-c]azepin-6(10bH)-one], in test [3], the Ki amounted to 11 nM. Moreover, the EC50 at 5HT2C receptors [1] stood at 1.14 nM.
The corresponding values for `O=C1NC[C@@H]2CN(Cc3ccccc3)C[C@H]2c2c(Cl)cccc21` (relative stereo) [Example 48, Trans-2-benzyl-10-chloro-1,2,3,3a,4,5-hexahydrobenzo[e]pyrrolo[3,4-c]azepin-6(10bH)-one] are 22 nM and 14.1 nM.

These data come from US8846951B2 (AbbVie Inc., priority 2009, dated 2014).
